These are literature values, as cited in article PMC9781217, “Discovery of Novel and Selective G-Protein Coupled Receptor 120 (GPR120) Agonists for the Treatment of Type 2 Diabetes Mellitus” (Molecules, 2022).

One data set relates to GPR40. Further details: method as in ref 15-26 = [15]; PMID 22519963; doi:10.1021/jm300215x; 15. Shimpukade B. Hudson B.D. Hovgaard C.K. Milligan G. Ulven T. Discovery of a potent and selective GPR120 agonist J. Med. Chem. 2012 55 4511 4515 10.1021/jm300215x 22519963 || [16]; PMID 24881566; doi:10.1016/j.bmcl.2014.05.012; 16. Sparks S.M. Chen G. Collins J.L. Danger D. Dock S.T. Jayawickreme C. Jenkinson S. Laudeman C. Leesnitzer M.A. Liang X. Identification of diarylsulfonamides as agonists of the free fatty acid recep || [17]; PMID 27570890; doi:10.1021/acs.jmedchem.6b00685; 17. Azevedo C.M. Watterson K.R. Wargent E.T. Hansen S.V. Hudson B.D. Kepczynska M.A. Dunlop J. Shimpukade B. Christiansen E. Milligan G. Non-Acidic Free Fatty Acid Receptor 4 Agonists with Antidiabeti || [18]; PMID 27815121; doi:10.1016/j.bmcl.2016.10.054; 18. Lombardo M. Bender K. London C. Kirkland M. Mane J. Pachanski M. Geissler W. Cummings J. Habulihaz B. Akiyama T.E. Discovery of benzofuran propanoic acid GPR120 agonists: From uHTS hit to mechanis || [19]; PMID 28105282; doi:10.1021/acsmedchemlett.6b00394; 19. Adams G.L. Velazquez F. Jayne C. Shah U. Miao S. Ashley E.R. Madeira M. Akiyama T.E. Di Salvo J. Suzuki T. Discovery of Chromane Propionic Acid Analogues as Selective Agonists of GPR120 with in Vi. Conditions: cited from earlier work; for EC50: Figure 1, representative GPR120 agonists.

For a further data set, the system named is GPR120. Also on record: method as in ref 15-26 = [15]; PMID 22519963; doi:10.1021/jm300215x; 15. Shimpukade B. Hudson B.D. Hovgaard C.K. Milligan G. Ulven T. Discovery of a potent and selective GPR120 agonist J. Med. Chem. 2012 55 4511 4515 10.1021/jm300215x 22519963 || [16]; PMID 24881566; doi:10.1016/j.bmcl.2014.05.012; 16. Sparks S.M. Chen G. Collins J.L. Danger D. Dock S.T. Jayawickreme C. Jenkinson S. Laudeman C. Leesnitzer M.A. Liang X. Identification of diarylsulfonamides as agonists of the free fatty acid recep || [17]; PMID 27570890; doi:10.1021/acs.jmedchem.6b00685; 17. Azevedo C.M. Watterson K.R. Wargent E.T. Hansen S.V. Hudson B.D. Kepczynska M.A. Dunlop J. Shimpukade B. Christiansen E. Milligan G. Non-Acidic Free Fatty Acid Receptor 4 Agonists with Antidiabeti || [18]; PMID 27815121; doi:10.1016/j.bmcl.2016.10.054; 18. Lombardo M. Bender K. London C. Kirkland M. Mane J. Pachanski M. Geissler W. Cummings J. Habulihaz B. Akiyama T.E. Discovery of benzofuran propanoic acid GPR120 agonists: From uHTS hit to mechanis || [19]; PMID 28105282; doi:10.1021/acsmedchemlett.6b00394; 19. Adams G.L. Velazquez F. Jayne C. Shah U. Miao S. Ashley E.R. Madeira M. Akiyama T.E. Di Salvo J. Suzuki T. Discovery of Chromane Propionic Acid Analogues as Selective Agonists of GPR120 with in Vi. Conditions: Figure 1, representative GPR120 agonists; cited from earlier work.

The next data set relates to human GPR120. Also on record: method as in ref 15-27 = [15]; PMID 22519963; doi:10.1021/jm300215x; 15. Shimpukade B. Hudson B.D. Hovgaard C.K. Milligan G. Ulven T. Discovery of a potent and selective GPR120 agonist J. Med. Chem. 2012 55 4511 4515 10.1021/jm300215x 22519963 || [16]; PMID 24881566; doi:10.1016/j.bmcl.2014.05.012; 16. Sparks S.M. Chen G. Collins J.L. Danger D. Dock S.T. Jayawickreme C. Jenkinson S. Laudeman C. Leesnitzer M.A. Liang X. Identification of diarylsulfonamides as agonists of the free fatty acid recep || [17]; PMID 27570890; doi:10.1021/acs.jmedchem.6b00685; 17. Azevedo C.M. Watterson K.R. Wargent E.T. Hansen S.V. Hudson B.D. Kepczynska M.A. Dunlop J. Shimpukade B. Christiansen E. Milligan G. Non-Acidic Free Fatty Acid Receptor 4 Agonists with Antidiabeti || [18]; PMID 27815121; doi:10.1016/j.bmcl.2016.10.054; 18. Lombardo M. Bender K. London C. Kirkland M. Mane J. Pachanski M. Geissler W. Cummings J. Habulihaz B. Akiyama T.E. Discovery of benzofuran propanoic acid GPR120 agonists: From uHTS hit to mechanis || [19]; PMID 28105282; doi:10.1021/acsmedchemlett.6b00394; 19. Adams G.L. Velazquez F. Jayne C. Shah U. Miao S. Ashley E.R. Madeira M. Akiyama T.E. Di Salvo J. Suzuki T. Discovery of Chromane Propionic Acid Analogues as Selective Agonists of GPR120 with in Vi. Conditions: cited from earlier work.

A further data set deals with hGPR40. Further details: method as in ref 15-26 = [15]; PMID 22519963; doi:10.1021/jm300215x; 15. Shimpukade B. Hudson B.D. Hovgaard C.K. Milligan G. Ulven T. Discovery of a potent and selective GPR120 agonist J. Med. Chem. 2012 55 4511 4515 10.1021/jm300215x 22519963 || [16]; PMID 24881566; doi:10.1016/j.bmcl.2014.05.012; 16. Sparks S.M. Chen G. Collins J.L. Danger D. Dock S.T. Jayawickreme C. Jenkinson S. Laudeman C. Leesnitzer M.A. Liang X. Identification of diarylsulfonamides as agonists of the free fatty acid recep || [17]; PMID 27570890; doi:10.1021/acs.jmedchem.6b00685; 17. Azevedo C.M. Watterson K.R. Wargent E.T. Hansen S.V. Hudson B.D. Kepczynska M.A. Dunlop J. Shimpukade B. Christiansen E. Milligan G. Non-Acidic Free Fatty Acid Receptor 4 Agonists with Antidiabeti || [18]; PMID 27815121; doi:10.1016/j.bmcl.2016.10.054; 18. Lombardo M. Bender K. London C. Kirkland M. Mane J. Pachanski M. Geissler W. Cummings J. Habulihaz B. Akiyama T.E. Discovery of benzofuran propanoic acid GPR120 agonists: From uHTS hit to mechanis || [19]; PMID 28105282; doi:10.1021/acsmedchemlett.6b00394; 19. Adams G.L. Velazquez F. Jayne C. Shah U. Miao S. Ashley E.R. Madeira M. Akiyama T.E. Di Salvo J. Suzuki T. Discovery of Chromane Propionic Acid Analogues as Selective Agonists of GPR120 with in Vi. Conditions: Figure 1; cited from earlier work.

Turning to `O=C(O)CCc1cc(F)c(OCc2c(-c3ccc(Cl)cc3F)nsc2C(F)(F)F)c(F)c1` [Compound 7], the EC50 (usually the concentration giving half of the maximal effect) with GPR40 was more than 5000 nM; with GPR120, 42 nM.

For `CO[C@H]1C[C@H](Oc2cc(F)c(F)c(-c3ccc4c(c3)CC[C@H](CCC(=O)O)O4)c2)C1` [Compound 4], the figures for the EC50 with GPR40 and in the data set on GPR120 were more than 10000 nM and 35 nM, respectively.

As for `Cc1ccc(-c2ccc(F)cc2COc2ccc(CC3SC(=O)NC3=O)c(Cl)c2)cc1` (stereo not shown) [Compound 8], the EC50 with GPR40 is 79000 nM; in the data set with GPR120, 76 nM.

For `Cc1ccc(-n2nc(C)c3cnc(-c4ccc([C@H]5C[C@@H]5C(=O)O)cc4)cc32)nc1` [Compound 3], the values for the EC50 in the data set on GPR40 and in the data set on GPR120 were more than 100000 nM and 740 nM, respectively.

In the case of `O=C(O)CC1CCC2(CC1)CCN(c1cc(OC(F)(F)F)ccc1Cl)CC2` [Compound 2], the EC50 with GPR40 was more than 10000 nM.

For the compound `CO[C@H]1C[C@H](Oc2cc(F)c(F)c(-c3c(F)cc(OCCCC(=O)O)cc3F)c2)C1` [Compound 6], the results for the EC50 in the data set on human GPR120 and in the data set with hGPR40 were 93 nM and more than 100000 nM, respectively.

On to `O=S1(=O)c2ccccc2CN1c1cc(F)cc(Oc2ccccn2)c1` [Compound 5], for which the GPR40 activity result in the data set on GPR40 (at 100 μM, Figure 1) is “Inactive”. Further, the EC50 with GPR120 was 123 nM.
